According to patent US12617799B2, “Pyrazolopyrimidinone compounds” (Orphagen Pharmaceuticals, Inc., priority 2021, dated 2026):
Where two headings read alike, the source gives them in different places.

Legend:
human SF-1 = target: T1, human SF-1 (Homo sapiens, UniProt Q13285); assay: SF-1 Luc assay (Gal4DBD-SF-1LBD luciferase reporter in transfected CHO-K1 cells); type: cell-based; conditions: CHO-K1 cells transfected with GAL4-SF-1 plasmid, 40 hours incubation; read-out: hSF-1-Luc: EC50
T1 construct: expressed in transfected cells; host or cells: CHO-K1 cells (Chinese hamster ovary), transient cotransfection with pG5luc
From the text: BamHI and XbaI sites introduced by the primers […] (forward) and […] (reverse) were used for subcloning the amplicon into pFA-CMV.
Cells were routinely cultured by splitting them from 1:10 to 1:20. […] Four hours after transfection, cells were trypsinized and suspended to a concentration of 1.6×10^5 cells/ml in supplemented Ham's F-12 media.
Assays: The collected cells were resuspended in the culture medium and plated into a 384 well-white plate (Corning Life Sciences, Acton, MA) at 8,000 cells/50 μL/well.
Measurement of SF-1 Transcriptional Activity: SF-1 transcriptional activity was detected as the intracellular Luc activity using SteadyLite Plus HTS Reporter Gene Assay System. After the measurement of the cell viability, the culture media in the 384 well-plate were completely removed. Then, 30 μL of the Luc substrate solution was added into each well and incubated for 10 min at room temperature. After the incubation, luminescence of each well was measured by a microplate reader.
Calculation of the SF-1 Transcriptional Activity (% of Control): The % of control for the transcriptional activity was calculated according to the following equation: % of control=A/B×100 Equation • A: luminescence count in the test article-treated CHO cells transfected with GAL4-SF-1 plasmid • B: mean luminescence count in the vehicle-treated CHO cells transfected with GAL4-SF-1 plasmid

[1] = tested on: rat Leydig tumor cell line R2C; assay: R2C proliferation assay for SF-1 antagonists (EdU incorporation); type: cell-based; conditions: for EC50: read-out: R2C: EC50
Description: SF-1 regulates progenitor cell formation and survival in adult Leydig cells. Anti-proliferative effects of SF-1 antagonists using a SF-1+ rat Leydig tumor cell line, R2C, was investigated. Cell proliferation was measured by detecting DNA incorporation of EdU, a nucleoside analogue that can be fluorescently tagged after cell fixation.
Proliferation of the rat Leydig tumor cell line R2C (ATCC® CCL-97™) was assessed using 5-ethynyl-2′-deoxyuridine (EdU), a nucleoside analogue incorporated during DNA synthesis that can be fluorescently tagged after cell fixation. Cycloheximide, a protein synthesis inhibitor, was used as a positive control for the assay.
R2C cells are maintained according to a protocol provided by the American Type Culture Collection (ATCC). At the time of assay, R2C cells were diluted to 1.0 million cells/mL with culture medium (F12 medium supplemented with 2% FBS and 1% Penicillin-Streptomycin) and 50 uL of cell suspension seeded into each well of 384-well clear bottom plates. The assay plates were incubated in a humidified, 37° C., 6% CO2 atmosphere for 24 hours. Serially diluted SF-1 antagonists, cycloheximide or vehicle (DMSO) were then applied to the R2C cells and incubated in a humidified, 37° C., 6% CO2 atmosphere for two days. EdU (Invitrogen), at a final concentration of 5 μM, was added to the cells and incubated for an additional 16 hours, after which cells were fixed with 10% formalin.
Cells were then washed and permeabilized in 0.5% TritonX-100/PBS solution at RT for 1 hour. EdU incorporation was detected by labeling EdU with 6-FAM azide (Lumiprobe) using a copper (I)-catalyzed Click reaction between an azide and alkyne. The reaction mixture consists of 5 mM ascorbic acid, 1 mM CuSO4, 1 μM 6-FAM azide dissolved in PBS buffer. […] For data normalization, the average fluorescence of DMSO wells was defined as 100%, and average fluorescence of 10 μM cycloheximide wells was defined as 0%. Curve fitting and EC50 determination were performed using the variable slope sigmoidal dose-response analysis.
R2C cells were routinely cultured in R2C culture medium. To assay SF-1 antagonist inhibitory activity, R2C cells were resuspended in the R2C plating medium and plated into a 384 well-clear bottom black plate at 20,000 cells/50 μL/well. […] 10 μL EdU plating solution were then dispensed into each well of assay plate incubated at 37° C., 6% CO2 for two days.
R2C proliferation is measured by detecting the fluorescent labelled EdU. The R2C assay plates were fixed by dispense 60 μL of 10% formalin into each well, and the plates were incubated at room temperature for 1 hour on an orbital shaker. The plates were washed with 80 μL of PBS three times, and cells were permeabilized by treating with 100 μL of PBS-0.5% TritonX-100 at RT for 1 hour on an orbital shaker. The plates were washed with 80 μL of PBS three times, and after the last wash, 25 μL of PBS was dispensed into each well. 25 μL of 2× mounting mix solution was then added into each well of fixed cells, and the plates were incubated at RT for 30 min in the dark on an orbital shaker. The cells were washed with 80 μL of PBS, three times, and after the last wash, 25 μL of PBS was dispensed into each well. […] The cells were washed with 80 μL of PBS, three times, and after the last wash, 50 μL of PBS was dispensed into each well. Assay plates were sealed with aluminum foil, and fluorescence was measured using a Envision microplate reader.
The % of control for the proliferation activity was calculated according to the following equation: % of control=100×(A−C)/(B−C) Equation • A: fluorescence count in the test article-treated R2C cells • B: mean fluorescence count in the vehicle-treated R2C cells • C: mean fluorescence count in the 10 μM cycloheximide-treated R2C cells

T1 sequence (Q13285 198-461 limits assumed): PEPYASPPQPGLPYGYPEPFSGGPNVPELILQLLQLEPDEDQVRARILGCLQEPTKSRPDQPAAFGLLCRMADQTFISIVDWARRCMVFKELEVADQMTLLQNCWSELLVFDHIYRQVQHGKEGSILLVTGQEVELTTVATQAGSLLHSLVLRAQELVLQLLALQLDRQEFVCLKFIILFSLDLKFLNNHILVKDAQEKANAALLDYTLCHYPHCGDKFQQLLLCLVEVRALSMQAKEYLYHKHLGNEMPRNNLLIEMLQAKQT

## C[C@H](O)CO[C@H]1CC[C@H](NC(=O)Cn2cnc3c(Nc4ccc(C(F)(F)F)cc4)nn(C)c3c2=O)CC1 [Compound 22, N-((1S,4r)-4-((S)-2-hydroxypropoxy)cyclohexyl)-2-(1-methyl-7-oxo-3-((4-(trifluoromethyl)phenyl)amino)-1,7-dihydro-6H-pyrazolo[4,3-d]pyrimidin-6-yl)acetamide]
Human SF-1
  EC50: < 0.2 µM
[1]; R2C cells, EdU incorporation
  EC50: < 0.2 µM

## Cn1nc(Nc2ccc(C(F)(F)F)cc2)c2ncn(CC(=O)N[C@H]3CCC[C@@H](OC(F)F)C3)c(=O)c21 (single isomer, unassigned) [Compound 48]
Human SF-1
  EC50: < 0.2 µM
[1]; R2C
  EC50: < 0.2 µM

## COc1ccc(NC(=O)Cn2cnc3c(Nc4ccc(C(F)(F)F)cn4)nn(C)c3c2=O)cc1F [Compound 64, N-(3-fluoro-4-methoxyphenyl)-2-(1-methyl-7-oxo-3-((5-(trifluoromethyl)pyridin-2-yl)amino)-1,7-dihydro-6H-pyrazolo[4,3-d]pyrimidin-6-yl)acetamide]
Human SF-1
  EC50: 1 to 10 µM
[1]; R2C cells, EdU incorporation
  EC50: 1 to 10 µM

## Cn1nc(Nc2ccc(C(F)(F)F)cc2)c2ncn(CC(=O)NCC3CCOCC3)c(=O)c21 [Compound 14, 2-(1-methyl-7-oxo-3-((4-(trifluoromethyl)phenyl)amino)-1,7-dihydro-6H-pyrazolo[4,3-d]pyrimidin-6-yl)-N-((tetrahydro-2H-pyran-4-yl)methyl)acetamide]
Human SF-1
  EC50: < 0.2 µM
[1]; R2C cells, EdU incorporation
  EC50: 0.2 to 1 µM

## Cn1nc(Nc2ccc(C(F)(F)F)cc2)c2ncn(CC(=O)N[C@@H]3CCC[C@H](OC(F)F)C3)c(=O)c21 (single isomer, unassigned) [Compound 49]
Human SF-1
  EC50: < 0.2 µM
[1]; R2C
  EC50: < 0.2 µM

## Cn1nc(Nc2ccc(C(F)(F)F)cc2)c2ncn(CC(=O)N[C@H]3CC[C@H](OC(F)F)CC3)c(=O)c21 [Compound 32, N-((1r,4r)-4-(difluoromethoxy)cyclohexyl)-2-(1-methyl-7-oxo-3-((4-(trifluoromethyl)phenyl)amino)-1,7-dihydro-6H-pyrazolo[4,3-d]pyrimidin-6-yl)acetamide]
Human SF-1
  EC50: < 0.2 µM
[1]; R2C
  EC50: < 0.2 µM

## Cn1nc(Nc2ccc(C(F)(F)F)cc2)c2ncn(CC(=O)N[C@H]3CC[C@H](C(C)(C)CO)CC3)c(=O)c21 [Compound 27, N-((trans)-4-(1-hydroxy-2-methylpropan-2-yl)cyclohexyl)-2-(1-methyl-7-oxo-3-((4-(trifluoromethyl)phenyl)amino)-1,7-dihydro-6H-pyrazolo[4,3-d]pyrimidin-6-yl)acetamide]
Human SF-1
  EC50: < 0.2 µM
[1]; R2C cells, EdU incorporation
  EC50: < 0.2 µM

## CCn1nc(Nc2ccc(C(F)(F)F)cc2)c2ncn(CC(=O)N[C@H]3CC[C@H](OCC(C)(C)O)CC3)c(=O)c21 [Compound 84, 2-(1-ethyl-7-oxo-3-((4-(trifluoromethyl)phenyl)amino)-1,7-dihydro-6H-pyrazolo[4,3-d]pyrimidin-6-yl)-N-((1r,4r)-4-(2-hydroxy-2-methylpropoxy)cyclohexyl)acetamide]
Human SF-1
  EC50: < 0.2 µM
[1]; R2C
  EC50: < 0.2 µM

## Cn1nc(Nc2ccc(C(F)(F)F)cc2)c2ncn(CC(=O)NC(C)(C)C3CCOCC3)c(=O)c21 [Compound 15, 2-(1-methyl-7-oxo-3-((4-(trifluoromethyl)phenyl)amino)-1,7-dihydro-6H-pyrazolo[4,3-d]pyrimidin-6-yl)-N-(2-(tetrahydro-2H-pyran-4-yl)propan-2-yl)acetamide]
Human SF-1
  EC50: 0.2 to 1 µM
[1]; R2C cells, EdU incorporation
  EC50: 1 to 10 µM

## Cn1nc(Nc2ccc(C(F)(F)F)cn2)c2ncn(CC(=O)N[C@H]3CC[C@H](OCC(C)(C)O)CC3)c(=O)c21 [Compound 52, N-((1r,4r)-4-(2-hydroxy-2-methylpropoxy)cyclohexyl)-2-(1-methyl-7-oxo-3-((5-(trifluoromethyl)pyridin-2-yl)amino)-1,7-dihydro-6H-pyrazolo[4,3-d]pyrimidin-6-yl)acetamide]
Human SF-1
  EC50: 1 to 10 µM
[1]; Leydig
  inhibition at 8 µM: 72%

## CC(C)(O)CO[C@H]1CC[C@H](NC(=O)Cn2cnc3c(Nc4ccc(C(F)(F)F)cc4)nn(CC(F)(F)F)c3c2=O)CC1 [Compound 92, N-((1r,4r)-4-(2-hydroxy-2-methylpropoxy)cyclohexyl)-2-(7-oxo-1-(2,2,2-trifluoroethyl)-3-((4-(trifluoromethyl)phenyl)amino)-1,7-dihydro-6H-pyrazolo[4,3-d]pyrimidin-6-yl)acetamide]
Human SF-1
  EC50: 0.2 to 1 µM
[1]; R2C
  EC50: 0.2 to 1 µM

## Cn1nc(Nc2ccc(C(F)(F)F)cc2)c2ncn(CC(=O)Nc3ccc(C(C)(C)C(=O)O)cc3)c(=O)c21 [Compound 19, 2-methyl-2-(4-(2-(1-methyl-7-oxo-3-((4-(trifluoromethyl)phenyl)amino)-1,7-dihydro-6H-pyrazolo[4,3-d]pyrimidin-6-yl)acetamido)phenyl)propanoic acid]
Human SF-1
  EC50: 0.2 to 1 µM
[1]; R2C cells, EdU incorporation
  EC50: 0.2 to 1 µM

## C[C@@H](CO)Oc1ccc(NC(=O)Cn2cnc3c(Nc4ccc(C(F)(F)F)cc4)nn(C)c3c2=O)cc1 (single isomer, unassigned) [Compound 26]
Human SF-1
  EC50: < 0.2 µM
[1]; R2C cells, EdU incorporation
  EC50: < 0.2 µM

## Cn1nc(Nc2ccc(C(F)(F)F)cc2)c2ncn(CC(=O)Nc3ccc(OCC(C)(C)O)cc3)c(=O)c21 [Compound 20, N-(4-(2-hydroxy-2-methylpropoxy)phenyl)-2-(1-methyl-7-oxo-3-((4-(trifluoromethyl)phenyl)amino)-1,7-dihydro-6H-pyrazolo[4,3-d]pyrimidin-6-yl)acetamide]
Human SF-1
  EC50: < 0.2 µM
[1]; R2C cells, EdU incorporation
  EC50: < 0.2 µM

## Cn1nc(Nc2ccc(C(F)(F)F)cc2)c2ncn(CC(=O)N[C@H]3CC[C@H](OCC(C)(C)O)CC3)c(=O)c21 [Compound 24, N-((trans)-4-(2-hydroxy-2-methylpropoxy)cyclohexyl)-2-(1-methyl-7-oxo-3-((4-(trifluoromethyl)phenyl)amino)-1,7-dihydro-6H-pyrazolo[4,3-d]pyrimidin-6-yl)acetamide]
Human SF-1
  EC50: < 0.2 µM
[1]; R2C cells, EdU incorporation
  EC50: < 0.2 µM

## Cc1cc(C(C)(C)S(C)(=O)=O)ccc1NC(=O)Cn1cnc2c(Nc3ccc(C(F)(F)F)cc3)nn(C)c2c1=O [Compound 18, N-(2-methyl-4-(2-(methylsulfonyl)propan-2-yl)phenyl)-2-(1-methyl-7-oxo-3-((4-(trifluoromethyl)phenyl)amino)-1,7-dihydro-6H-pyrazolo[4,3-d]pyrimidin-6-yl)acetamide]
Human SF-1
  EC50: < 0.2 µM
[1]; R2C cells, EdU incorporation
  EC50: < 0.2 µM

## C[C@H](CO)Oc1ccc(NC(=O)Cn2cnc3c(Nc4ccc(C(F)(F)F)cc4)nn(C)c3c2=O)cc1 (single isomer, unassigned) [Compound 25]
Human SF-1
  EC50: < 0.2 µM
[1]; R2C cells, EdU incorporation
  EC50: < 0.2 µM

## CCn1nc(Nc2ccc(C(F)(F)F)cc2)c2ncn(CC(=O)Nc3ccc(OC)c(F)c3)c(=O)c21 [Compound 77, 2-(1-ethyl-7-oxo-3-((4-(trifluoromethyl)phenyl)amino)-1,7-dihydro-6H-pyrazolo[4,3-d]pyrimidin-6-yl)-N-(3-fluoro-4-methoxyphenyl)acetamide]
Human SF-1
  EC50: < 0.2 µM
[1]; R2C
  EC50: < 0.2 µM
